In ChEMBL document CHEMBL3124869 (J Med Chem, 2014):
One block for each compound: values may come before it.

What was measured:
in vitro [1] = details: dog, MDCK
Description: Intrinsic absorptive permeability from apical to basolateral side of dog RRCK cells

in vitro [2] = details: human, liver microsomes
Description: Apparent total intrinsic clearance in human liver microsomes

physchem = details: octanol/water, pH 7.4
[3] = Antitumor activity against human NCI-H3122 cells harboring ALK L1196M mutant xenografted in athymic nu/nu mouse assessed as tumor growth regression at 50 mg/kg, po bid administered via gavage starting on day 15 post tumor implantation measured on day 27; assay type: functional
[4] = Tmax in rat at 5 mg/kg, po; assay type: ADME, organism-based; set-up: dose 5 mg/kg, route oral; details: in vivo
[5] = target: Proto-oncogene tyrosine-protein kinase ROS (Homo sapiens, UniProt P08922); assay: Inhibition of ROS1 (unknown origin) by Pfizer mobility shift assay
[6] = Half life in rat at 1 mg/kg, iv; assay type: ADME, organism-based; set-up: dose 1 mg/kg, route intravenous; details: in vivo
[7] = AUC in rat at 5 mg/kg, po; assay type: ADME, organism-based; set-up: dose 5 mg/kg, route oral; details: plasma
[8] = Volume of distribution at steady state in rat at 1 mg/kg, iv; assay type: ADME, organism-based; set-up: dose 1 mg/kg, route intravenous; details: in vivo, read-out: Vdss
[9] = Cmax in rat at 5 mg/kg, po; assay type: ADME, organism-based; set-up: dose 5 mg/kg, route oral; details: in vivo
Focal adhesion kinase 1 = Focal adhesion kinase 1 (Homo sapiens, UniProt Q05397); assay: Inhibition of PTK2 (unknown origin) using Km levels of ATP
[10] = target: Leukocyte tyrosine kinase receptor (Homo sapiens, UniProt P29376); assay: Inhibition of LTK (unknown origin) using Km levels of ATP
[11] = Antitumor activity against human NCI-H3122 cells harboring ALK L1196M mutant xenografted in athymic nu/nu mouse assessed as tumor total growth inhibition at 30 mg/kg, po qd administered via gavage starting on day 15 post tumor implantation; assay type: functional; details: NCI-H3122, 360 h, read-out: TGI
Activated CDC42 kinase 1 = Activated CDC42 kinase 1 (Homo sapiens, UniProt Q07912)
[12] = target: Tyrosine-protein kinase Fer (Homo sapiens, UniProt P16591); assay: Inhibition of FER (unknown origin) using Km levels of ATP
[13] = target: Tyrosine-protein kinase Fes/Fps (Homo sapiens, UniProt P07332); assay: Inhibition of FES (unknown origin) using Km levels of ATP
[14] = Oral bioavailability in rat at 5 mg/kg; assay type: ADME, organism-based; details: in vivo
Mus musculus = assay: Toxicity in po dosed athymic nu/nu mouse xenografted with human NCI-H3122 cells harboring ALK L1196M mutant assessed as body weight reduction administered via gavage starting on day 15 post tumor implantation; assay type: organism-based; details: in vivo
[15] = target: NT-3 growth factor receptor (Homo sapiens, UniProt Q16288); assay: Inhibition of NTRK3 (unknown origin) using Km levels of ATP
[16] = target: High affinity nerve growth factor receptor (Homo sapiens, UniProt P04629); assay: Inhibition of NTRK1 (unknown origin) using Km levels of ATP
[17] = Antitumor activity against human NCI-H3122 cells harboring ALK L1196M mutant xenografted in athymic nu/nu mouse assessed as tumor total growth inhibition at 15 mg/kg, po bid administered via gavage starting on day 15 post tumor implantation; assay type: functional; details: NCI-H3122, 360 h, read-out: TGI
[18] = target: BDNF/NT-3 growth factors receptor (Homo sapiens, UniProt Q16620); assay: Inhibition of NTRK2 (unknown origin) using Km levels of ATP
[19] = AUC in rat at 1 mg/kg, iv; assay type: ADME, organism-based; set-up: dose 1 mg/kg, route intravenous; details: plasma
[20] = Plasma clearance in rat at 1 mg/kg, iv; assay type: ADME, organism-based; set-up: dose 1 mg/kg, route intravenous
[21] = target: T1, ALK tyrosine kinase receptor (Homo sapiens, UniProt Q9UM73, L1196M)
[22] = target: T1, ALK tyrosine kinase receptor; remark: listed apart in the source

Papp A→B (in vitro [1]): 170 nm/s
CLint scaled (in vitro [2]): 0.9 L/h/kg
logD (physchem): 2.9
Compound: Cc1nc([C@@](C)(O)CO)sc1-c1cnc(N)c(O[C@H](C)c2cc(F)ccc2-n2nccn2)c1

Papp A→B (in vitro [1]): 180 nm/s
CLint scaled (in vitro [2]): 1.32 L/h/kg
logD (physchem): 3.3
Compound: C[C@@H](Oc1cc(-c2cn(C)nc2C#N)cnc1N)c1cc(F)ccc1-n1nccn1

Papp A→B (in vitro [1]): 220 nm/s
CLint scaled (in vitro [2]): 1.02 L/h/kg
logD (physchem): 3.3
Compound: C[C@@H](Oc1cc(-c2ccnn2C)cnc1N)c1cc(F)ccc1-n1nccn1

Papp A→B (in vitro [1]): 240 nm/s
CLint scaled (in vitro [2]): 0.18 L/h/kg
logD (physchem): 2.4
Compound: C[C@@H](Oc1cc(-c2cnnn2C)cnc1N)c1cc(F)ccc1-n1nccn1

Papp A→B (in vitro [1]): 140 nm/s
CLint scaled (in vitro [2]): 2.28 L/h/kg
logD (physchem): 3.7
Compound: COc1ncccc1-c1cnc(N)c(O[C@H](C)c2cc(F)ccc2-n2nccn2)c1

Papp A→B (in vitro [1]): 220 nm/s
CLint scaled (in vitro [2]): 2.94 L/h/kg
logD (physchem): 3.1
Compound: COc1ncncc1-c1cnc(N)c(O[C@H](C)c2cc(F)ccc2-n2nccn2)c1

Papp A→B (in vitro [1]): 140 nm/s
CLint scaled (in vitro [2]): 2.94 L/h/kg
logD (physchem): 3.6
Compound: Cc1nc(C(C)(C)O)ccc1-c1cnc(N)c(O[C@H](C)c2cc(F)ccc2-n2nccn2)c1

Papp A→B (in vitro [1]): 180 nm/s
CLint scaled (in vitro [2]): 1.38 L/h/kg
logD (physchem): 3.6
Compound: Cc1nc(C(C)(C)O)sc1-c1cnc(N)c(O[C@H](C)c2cc(F)ccc2-n2nccn2)c1

Papp A→B (in vitro [1]): 210 nm/s
CLint scaled (in vitro [2]): 4.8 L/h/kg
logD (physchem): 2.4
Compound: Cc1nccn1-c1cnc(N)c(O[C@H](C)c2cc(F)ccc2-n2nccn2)c1

Papp A→B (in vitro [1]): 34 nm/s
CLint scaled (in vitro [2]): 3.3 L/h/kg
logD (physchem): 2.6
Compound: Cc1nc(C2(O)CN(C)C2)sc1-c1cnc(N)c(O[C@H](C)c2cc(F)ccc2-n2nccn2)c1

Papp A→B (in vitro [1]): 140 nm/s
CLint scaled (in vitro [2]): 0.78 L/h/kg
logD (physchem): 3.2
Compound: Cc1nc(C2(O)CCS(=O)(=O)C2)sc1-c1cnc(N)c(O[C@H](C)c2cc(F)ccc2-n2nccn2)c1 (stereo not given in full)

Papp A→B (in vitro [1]): 190 nm/s
Tmax [4]: 1.3 h
Ki [5]: 0.02 nM
half-life [6]: 0.9 h
AUC [7]: 2870 nM·h
Vd [8]: 2 L/kg
Cmax [9]: 0.568 µM
IC50 (Focal adhesion kinase 1): 16 nM
IC50 [10]: 2 nM
IC50 (Activated CDC42 kinase 1): 15 nM
CLint scaled (in vitro [2]): 0.9 L/h/kg
IC50 [12]: 2 nM
IC50 [13]: 5 nM
logD (physchem): 2.9
bioavailability [14]: 86%
IC50 [15]: 18 nM
IC50 [16]: 17 nM
IC50 [18]: 4 nM
AUC [19]: 667 nM·h
clearance [20]: 3.24 L/h/kg
Compound: Cc1nc([C@](C)(O)CO)sc1-c1cnc(N)c(O[C@H](C)c2cc(F)ccc2-n2nccn2)c1
Activity [3]: 56%
inhibition in vivo at 30 mg/kg [11]: 100%
Activity (Mus musculus): Non-toxic
inhibition in vivo at 15 mg/kg [17]: 100%

Compound: C[C@@H](Oc1cc(-c2cnn(C3CCNCC3)c2)cnc1N)c1cc(F)ccc1Cl
Papp A→B (in vitro [1]): 23 nm/s
CLint scaled (in vitro [2]): 1.62 L/h/kg
logD (physchem): 1.7
IC50 [21]: 387 nM
Ki [22]: 5 nM

Papp A→B (in vitro [1]): 180 nm/s
CLint scaled (in vitro [2]): 1.86 L/h/kg
logD (physchem): 3.4
Compound: Cc1n[nH]cc1-c1cnc(N)c(O[C@H](C)c2cc(F)ccc2F)c1

Papp A→B (in vitro [1]): 200 nm/s
CLint scaled (in vitro [2]): 2.22 L/h/kg
logD (physchem): 2.7
Compound: Cc1n[nH]cc1-c1cnc(N)c(O[C@@H](C)c2cc(F)ccc2C#N)c1

Papp A→B (in vitro [1]): 140 nm/s
CLint scaled (in vitro [2]): 3.9 L/h/kg
logD (physchem): 3.5
Compound: COc1ccc(F)cc1[C@@H](C)Oc1cc(-c2c[nH]nc2C)cnc1N

Papp A→B (in vitro [1]): 210 nm/s
CLint scaled (in vitro [2]): 2.76 L/h/kg
logD (physchem): 3.3
Compound: Cc1n[nH]cc1-c1cnc(N)c(O[C@H](C)c2cc(F)ccc2-n2nccn2)c1

Papp A→B (in vitro [1]): 270 nm/s
CLint scaled (in vitro [2]): 4.08 L/h/kg
logD (physchem): 3.4
Compound: Cc1nn(C)cc1-c1cnc(N)c(O[C@H](C)c2cc(F)ccc2-n2nccn2)c1

Papp A→B (in vitro [1]): 210 nm/s
CLint scaled (in vitro [2]): 8.28 L/h/kg
logD (physchem): 3.3
Compound: Cc1nc(C2(O)CCOC2)sc1-c1cnc(N)c(O[C@H](C)c2cc(F)ccc2-n2nccn2)c1 (single isomer, unassigned)
